Experimental data published in ChEMBL document CHEMBL5550091 (2024).
Activity calls are given as the source filed them. The rule behind the calls is not given here.

Tests used:
[1] = Displacement of BODIPY TMR-X-labeled P11 peptide from recombinant N-terminal deca-His/SUMO tagged RTA (1 to 267 residues) (unknown origin) expressed in Escherichia coli BL21 (DE3) incubated for 30 mins by competition binding based fluorescence polarization assay
[2] = Inhibition of recombinant N-terminal deca-His/SUMO tagged RTA (1 to 267 residues) (unknown origin) expressed in Escherichia coli BL21 (DE3) mediated ribosome depurination activity assessed as reduction in ribosomal RNA depurination preincubated with compound for 5 mins followed by addition of rat liver ribosomes and measured after 5 mins by qRT-PCR analysis; assay type: subcellular
[3] = Inhibition of recombinant N-terminal deca-His/SUMO tagged RTA (1 to 267 residues) (unknown origin) expressed in Escherichia coli BL21 (DE3) mediated ribosome depurination activity assessed as maximal inhibition of cellular ribosomal RNA depurination preincubated with compound for 5 mins followed by addition of rat liver ribosomes and measured after 5 mins by qRT-PCR analysis relative to control; assay type: subcellular; settings: time 10.0 min
cells [4] = assay type: cell-based; settings: Vero, 2 h
cells [5] = assay type: cell-based; settings: A549, 2 h
[6] = Inhibition of STX2A1 (unknown origin) mediated ribosomal depurination activity assessed as reduction in ribosomal RNA depurination preincubated with compound for 5 mins followed by addition of rat liver ribosomes and measured after 5 mins by qRT-PCR analysis; assay type: subcellular, Ribosome
[7] = Displacement of BODIPY TMR-X-labeled P11 peptide from recombinant N-terminal deca-His/SUMO tagged RTA (1 to 267 residues) (unknown origin) expressed in Escherichia coli BL21 (DE3) assessed as inhibition constant incubated for 30 mins by competition binding based fluorescence polarization assay

Compound	IC50 [1] [µM]	IC50 [2] [µM]	Imax [3] [%]	Ki [7] [µM]	also measured
Cc1cccc(C)c1-c1ccc(C(=O)O)s1	31	45	102		
O=C(O)c1cc2c(s1)-c1ccccc1CC2			100		
O=C(O)c1cc2c(s1)-c1ccc(F)cc1CC2	17	32	104		
CC1(C)Cc2cc(C(=O)O)sc2-c2ccccc21		23	112		EC50 (cells [4]): 29 µM; EC50 (cells [5]): 92 µM; IC50 [6]: 83 µM
NC(=O)c1cccc2c1-c1ccccc1C2=O					Activity [1]: inactive
H-RGWGHPSGYS-OH					Activity [1]: inactive
O=C(O)c1ccc(-c2ccccc2)s1	224	408		58	
H-SDDDMGFGLFD-OH	4	31		1	
O=C(O)c1cc2c(s1)-c1cc(Cl)ccc1SC2	59			15	
